The target in data set [1] is norepinephrine transporter (Rattus norvegicus, UniProt Q63380). The following applies: from Table 1. On the procedure:
Reactions were carried out in 50 mM TRIS-HCl (pH 7.4), containing 300 mM NaCl and 5 mM KCl at 0° C. to 4° C. for 4 hours. The reaction was terminated by rapid vacuum filtration onto glass fiber filters. Radioactivity trapped in the filters was determined and compared to control values in order to ascertain the interactions of the test compound with the norepinephrine uptake site.

In data set [2] the target is T1, serotonin transporter (Rattus norvegicus, UniProt P31652).
T1 construct: The receptor source was rat forebrain membrane; from tissue; host or cells: rat forebrain membranes
T1 sequence (P31652 whole entry): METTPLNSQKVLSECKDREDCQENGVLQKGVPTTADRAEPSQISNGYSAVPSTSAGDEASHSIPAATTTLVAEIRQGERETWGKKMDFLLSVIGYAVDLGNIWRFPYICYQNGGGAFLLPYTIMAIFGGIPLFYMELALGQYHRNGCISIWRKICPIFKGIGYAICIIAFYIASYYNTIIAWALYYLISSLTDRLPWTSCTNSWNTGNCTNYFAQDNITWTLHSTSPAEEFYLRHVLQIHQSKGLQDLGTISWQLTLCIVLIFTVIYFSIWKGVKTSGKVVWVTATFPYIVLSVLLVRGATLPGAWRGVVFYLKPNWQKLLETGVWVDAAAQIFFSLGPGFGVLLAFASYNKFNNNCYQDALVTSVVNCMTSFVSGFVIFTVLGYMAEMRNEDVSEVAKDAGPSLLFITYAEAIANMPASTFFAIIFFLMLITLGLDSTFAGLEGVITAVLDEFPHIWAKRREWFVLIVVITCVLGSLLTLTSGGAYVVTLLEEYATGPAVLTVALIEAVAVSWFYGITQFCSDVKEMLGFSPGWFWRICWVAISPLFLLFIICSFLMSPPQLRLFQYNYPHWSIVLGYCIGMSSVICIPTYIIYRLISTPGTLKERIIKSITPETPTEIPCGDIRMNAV
Kind of data set: Serotonin transporter binding assay, [3H]citalopram. The following applies: from Table 2. On the procedure:
The reference compound and positive control were (±)-desmethylimipramine. […] Reactions were carried out in 50 mM TRIS-HCl (pH 7.4) containing 120 mM NaCl and 5 mM KCl at 25° C. for 60 minutes. The reaction was terminated by rapid vacuum filtration onto glass fiber filters. Radioactivity trapped in the filters was determined using liquid scintillation spectrometry and compared to control values in order to ascertain any interactions of test compound with the serotonin transporter binding site.

A short description of data set [3]: Effect on weight gain in male DIO rats. The data set is classed as in vivo, rat. On the procedure: Male DIO rats, weighing approximately 200 g each were housed singly in plastic cages with wood litter and free access to food and water in a vivarium maintained under a 12 hour light/dark cycle at 21±3°. After an acclimatization period of 1 week, the studies were initiated. During the study period, access to food and water was restricted for 3 hours per day (1000 to 1300 hrs). On day 0, the amount of food and water consumed was measured in all rats in the absence of any treatment. […] A cannabinoid receptor blocker, termed AM251, and an enantiomer of fenfluramine, termed d-FEN1, both of which are known to regulate the melanocortin pathways in animals, were also administered for comparison purposes. Test compounds or vehicle were then orally administered in a volume of 5 mL/kg 60 minutes before access to food and water (0900 hrs). Body weight was measured prior to and 18 hours after administration of the various compounds.

Data set [4] is described as follows: Toxicokinetic evaluation in dogs. The format is in vivo. The note with it: beagle, dog, po; for AUC(0-t): read-out: AUC0-24 h. Here is the method:
Eighteen male and eighteen female beagle dogs were received from Ridglan Farms, Mt. Horeb, Wis. […] Each group consisted of four males and four females. All animals/sex/group were scheduled for the primary necropsy at the end of the 13-week treatment period.
The animals were observed twice daily for mortality and moribundity. Clinical examinations were performed daily at the time of dosing and approximately 1-2 and approximately 3 hours following dose administration. Detailed physical examinations were performed weekly. Clinical pathology evaluations (hematology, serum chemistry and urinalysis) were performed prior to the initiation of dose administration (study week-1) and prior to the scheduled necropsy (study week 13). Individual body weights were recorded weekly, beginning approximately two weeks prior to test article administration (study week-2). Mean body weights and mean body weight changes were calculated for each corresponding interval. Final body weights (fasted) were recorded prior to the scheduled necropsy. Blood samples for toxicokinetic evaluation were collected from all dogs on study days 0 and 88 at 0, 1, 2, 4, 8 and 24 hours after dose administration. […] Gross lesions were also examined from the 2.0 and 6.0 mg/kg/day groups.

The mark [5] stands for this setting: female, blood, 6 mg/kg/day, female dogs, 6 mg/kg/day oral, Day 0.
Setting [6] is: female, blood, 6 mg/kg/day, female dogs, 6 mg/kg/day oral, Day 88.
Setting [7] is: female, blood, 20 mg/kg/day, female dogs, 20 mg/kg/day oral, Day 0.
The mark [8] stands for this setting: female, blood, 20 mg/kg/day, female dogs, 20 mg/kg/day oral, Day 88.
Setting [9] is: female, in vivo, 2 mg/kg/day, female dogs, 2 mg/kg/day oral, Day 0.
Where [10] appears, read: female, in vivo, 2 mg/kg/day, female dogs, 2 mg/kg/day oral, Day 88.
The mark [11] stands for this setting: male, blood, 2 mg/kg/day, male dogs, 2 mg/kg/day oral, Day 0.
The mark [12] stands for this setting: male, blood, 2 mg/kg/day, male dogs, 2 mg/kg/day oral, Day 88.
Setting [13] is: male, in vivo, 6 mg/kg/day, male dogs, 6 mg/kg/day oral, Day 0.
The mark [14] stands for this setting: male, in vivo, 6 mg/kg/day, male dogs, 6 mg/kg/day oral, Day 88.
The mark [15] stands for this setting: male, in vivo, 20 mg/kg/day, male dogs, 20 mg/kg/day oral, Day 0.
The mark [16] stands for this setting: male, in vivo, 20 mg/kg/day, male dogs, 20 mg/kg/day oral, Day 88.

Molecules are shown by their SMILES. Like-named read-outs stand apart in the source and are kept apart here.

By Tmax is commonly meant the time at which the peak concentration occurs. In general, Cmax refers to the highest concentration seen after dosing.

Sequence of norepinephrine transporter (Q63380 1-617): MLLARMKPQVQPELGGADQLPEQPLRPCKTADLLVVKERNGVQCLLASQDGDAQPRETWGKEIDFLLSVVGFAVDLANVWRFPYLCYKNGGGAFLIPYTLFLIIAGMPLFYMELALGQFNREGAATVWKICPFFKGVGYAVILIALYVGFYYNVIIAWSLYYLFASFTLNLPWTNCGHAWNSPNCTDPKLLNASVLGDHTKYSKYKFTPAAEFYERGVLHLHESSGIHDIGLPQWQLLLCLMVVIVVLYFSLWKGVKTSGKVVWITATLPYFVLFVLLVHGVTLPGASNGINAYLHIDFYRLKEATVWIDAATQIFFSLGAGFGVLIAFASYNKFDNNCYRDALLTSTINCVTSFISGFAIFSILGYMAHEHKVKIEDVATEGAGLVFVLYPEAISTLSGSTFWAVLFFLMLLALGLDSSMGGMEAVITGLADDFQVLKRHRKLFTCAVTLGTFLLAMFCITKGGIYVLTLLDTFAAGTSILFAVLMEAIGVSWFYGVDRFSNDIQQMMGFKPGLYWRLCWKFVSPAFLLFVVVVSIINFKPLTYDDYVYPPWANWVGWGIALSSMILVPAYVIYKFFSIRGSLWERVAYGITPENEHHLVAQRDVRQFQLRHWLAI

`Cl.Clc1ccc([C@@]23CNC[C@@H]2C3)cc1Cl` (single isomer, unassigned) [(+)-1-(3,4-dichlorophenyl)-3-azabicyclo[3.1.0]hexane hydrochloride]: the “affinity for the norepinephrine uptake site compared with the (±) compound” value in data set [1] is given as “significantly greater affinity”. Also, the “affinity for the serotonin uptake site compared with the (±) compound” value in data set [2] is “significantly greater affinity”.

Consider `Clc1ccc([C@]23CNCC2C3)cc1Cl` (single isomer, unassigned; (+)) [(+)-1-(3,4-dichlorophenyl)-3-azabicyclo[3.1.0]hexane], for which, in data set [3] (oral 2, 4, 6, 20 and 40 mg/kg, 18 hours after administration), the “body weight gain compared to vehicle” value is “dose-dependently suppressed this body weight gain”. In data set [3] (oral doses of 20 and 40 mg/kg, 18 hours), the “effect on body weight compared with AM251 or d-FEN1” value is recorded as “significantly more effective than either AM251 or d-FEN1”. Besides, the time to peak (Tmax) was 1 h in data set [4] (female, blood, 2 mg/kg/day, female dogs, 2 mg/kg/day oral, Day 0); 1 h in data set [4] (female, blood, 2 mg/kg/day, female dogs, 2 mg/kg/day oral, Day 88); 1 h in data set [4] (setting [5]); 1 h in data set [4] (setting [6]); 2 h in data set [4] (setting [7]); 1 h in data set [4] (setting [8]). Besides, the time to peak (Tmax) in data set [4] (setting [11]), in data set [4] (setting [12]), in data set [4] (setting [13]), in data set [4] (setting [14]), in data set [4] (setting [15]) and in data set [4] (setting [16]) was 1 h each time. The Cmax in data set [4] (setting [5]) came to 5120 ng/mL; in data set [4] (setting [6]), 4850 ng/mL; in data set [4] (setting [7]), 9280 ng/mL; in data set [4] (setting [8]), 8430 ng/mL; in data set [4] (setting [9]), 635 ng/mL; in data set [4] (setting [10]), 663 ng/mL. Besides, the Cmax in data set [4] (setting [11]) came to 507 ng/mL; in data set [4] (setting [12]) it was 753 ng/mL; in data set [4] (setting [13]), 4640 ng/mL; in data set [4] (setting [14]), 4140 ng/mL; in data set [4] (setting [15]), 11400 ng/mL; in data set [4] (setting [16]) it was 7230 ng/mL. Further, the AUC(0-t) was determined as 13600 ng·h/mL in data set [4] (setting [5]); 63600 ng·h/mL in data set [4] (setting [7]); 29600 ng·h/mL in data set [4] (setting [8]); 1470 ng·h/mL in data set [4] (setting [9]); 2150 ng·h/mL in data set [4] (setting [10]); 15900 ng·h/mL in data set [4] (female, in vivo, 6 mg/kg/day, female dogs, 6 mg/kg/day oral, Day 88). Moreover, the AUC(0-t) was determined as 1570 ng·h/mL in data set [4] (setting [11]); 2280 ng·h/mL in data set [4] (setting [12]); 12800 ng·h/mL in data set [4] (setting [13]); 13100 ng·h/mL in data set [4] (setting [14]); 47800 ng·h/mL in data set [4] (setting [15]); 44000 ng·h/mL in data set [4] (setting [16]).

Source of the values: US20070225351A1, “Methods and compositions for controlling body weight and appetite” (priority 2002, published 2007).
